One series has as its target T1, wild-type human PTHR (Homo sapiens, UniProt Q03431).
T1 construct: expressed in transfected cells
T1 sequence (Q03431 27-593): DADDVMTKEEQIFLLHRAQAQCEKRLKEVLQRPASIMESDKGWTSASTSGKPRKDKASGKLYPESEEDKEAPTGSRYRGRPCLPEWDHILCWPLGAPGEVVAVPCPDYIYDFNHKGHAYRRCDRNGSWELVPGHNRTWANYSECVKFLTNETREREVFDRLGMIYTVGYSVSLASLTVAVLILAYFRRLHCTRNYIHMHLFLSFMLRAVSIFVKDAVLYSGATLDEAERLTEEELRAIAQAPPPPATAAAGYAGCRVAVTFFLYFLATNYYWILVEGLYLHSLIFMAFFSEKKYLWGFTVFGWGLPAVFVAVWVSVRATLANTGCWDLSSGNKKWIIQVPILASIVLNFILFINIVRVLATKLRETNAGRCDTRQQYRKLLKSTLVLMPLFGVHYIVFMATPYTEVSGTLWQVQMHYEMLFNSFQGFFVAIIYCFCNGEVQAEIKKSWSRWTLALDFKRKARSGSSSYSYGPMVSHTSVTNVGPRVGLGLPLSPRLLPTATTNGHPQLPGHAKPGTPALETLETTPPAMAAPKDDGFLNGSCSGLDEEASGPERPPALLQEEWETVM
As to the kind of experiment: Competition binding in intact HKRK-B7 cells with 125I-PTH(1-34) tracer. Conditions: for enhancement in apparent PTHR-binding affinity relative to parent peptide / detectable binding to the intact PTHR (in words) / reduction (alteration) of apparent binding affinity for the intact PTHR relative to parent peptide: HKRK-B7 cells; for enhancement in apparent PTHR-binding affinity relative to parent peptide: versus PTH(1-31)NH2; for IC50: hPTH(1-31)NH2 analogs, intact HKRK-B7 cells, 125I-[Nle8,21,Tyr34]ratPTH(1-34)NH2 tracer, read-out: PTHR-WT (HKRK-B7 cells) IC50; for reduction (alteration) of apparent binding affinity for the intact PTHR relative to parent peptide: versus the respective parent peptide. The protocol: Cell Culture—Cells were cultured at 37° C. in a humidified atmosphere containing 5% CO2 in Dulbecco's modified Eagle's medium (DMEM), supplemented with 10% fetal bovine serum (HyClone, Logan Utah), 100 units/ml penicillin G, and 100 ug/ml streptomycin penicillin G/streptomycin (Invitrogen Corp. Carlsbad, Calif.). For binding and cAMP studies performed with the intact PTHR, the HKRK-B7 and ROS 17/2.8 cell lines were used. HKRK-B7 cells are derived from the porcine kidney cell line LLC-PK1 and express, via stable DNA transfection, the wild-type human PTHR at an approximate surface density of 950,000 PTH-binding sites per cell. ROS 17/2.8 cells are rat osteosarcoma cells and express the endogenous PTHR at an approximate surface density of 80,000 PTH-binding sites per cell. The cells were plated and assayed in 24-well plates.
Receptor binding—Binding to the wild-type human PTHR in intact HKRK-B7 cells and ROS 17/2.8 cells was assessed using ^125I-PTH(1-34) as a tracer radioligand, as described (Shimizu, M., (2001) Endocrinology 142:3068-3074). In brief, the cells in 24-well plates (about 500,000 cells per well) were incubated in binding buffer containing radioligand (about 100,000 cpm per well) with or without unlabeled peptide ligand (3×10^−9 to 1×10^−5 M) for four hours at 15° C. The binding mixture was then removed by aspiration, the cells were rinsed three times with binding buffer, lysed in 1 M NaOH, and the entire lysate was counted for gamma-irradiation in a gamma counter. Binding to PTHR-delNt in COS-7 cell membranes was assessed in 96-well, vacuum filtration plates (Multiscreen-Durapore HV, […] membranes, Millipore Corp., Millford, Mass.) using ^125I-[Aib^1,3,M]PTH(1-15)NH2 as a tracer radioligand, as described (Dean, T., (2006) Mol Endocrinol 20:931-942). In brief, cell membranes (20 μg/well) were incubated in membrane binding buffer containing radioligand (30,000 cpm/well) with or without unlabeled peptide ligand (3×10^−9 to 1×10^−5 M) for 90 minutes at 21° C. The plates were then subject to rapid vacuum filtration, the filters were washed once with buffer, detached from the plate and counted for gamma-irradiation in a gamma counter. Non-specific binding was defined as the binding observed in the presence of 1×10^−6 M PTH(1-31)NH2 for HKRK-B7 and ROS 17/2.8 cells, and 1×10^−6 M [Aib^1,3,M]PTH(1-15)NH2 for PTHR-delNt. Specifically bound radioactivity was calculated as a percentage of the radioactivity specifically bound in the absence of competing ligand.
Data and statistical calculations—Data were processed for curve fitting and derivation of IC50 and EC50 values using least-squares, nonlinear regression analysis and the four parameter logistic equation: […], where y, ymin and ymax are the observed, minimum and maximum response values, respectively; x is ligand concentration, and n is the slope factor. In cases where incomplete inhibition of binding occurred: i.e. with certain PTH(1-31) analogs binding to PTHR-delNt, the curve fits and IC50 values were derived by extrapolating the data to the maximum inhibition attained by [Aib^1,3,M]PTH(1-15)NH2. Paired data sets were statistically compared using a two-tailed Student's t-test, assuming unequal variances for the two sets.

The nature of series [1]: Circular dichroism spectroscopy, helical residues per peptide chain. In kind it is physicochemical. Particulars: calculated from [θ]222. The method, boiled down: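 Helical residue count per peptide chain derived from 222 nm mean residue ellipticity via −[θ]222×30/28,000. Spectra taken at 20 °C as four-scan averages, with concentrations verified by absorbance at 280 nm (single tryptophan, 5700 M^−1).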

The text below walks through data of patent US8143374B2, “Polypeptide derivatives of parathyroid hormone (PTH)” (The General Hospital Corporation, priority 2006, dated 2012).

Entries after “also recorded” stand apart in the source; their conditions may differ. Where no end group is shown, it is not given here. Some results are limits rather than exact numbers.

With “SVSEIQLMHNLGKHLNSMARVAWLRKKLQDV-NH2 [Glu^19,22→Ala,Ala]”, at wild-type human PTHR, the “enhancement in apparent PTHR-binding affinity relative to parent peptide” value is “did not lead to further improvements” and the IC50 stood at 49 ± 9 nM. Moreover, the CD helical residues in series [1] (hPTH(1-31)NH2 analogs) was 9.

“SVSEIQLMHNLGKHLNSMARVEWLRKKLQDV-NH2 [Glu^19→Ala]”: at wild-type human PTHR, the “enhancement in apparent PTHR-binding affinity relative to parent peptide” value is on record as “≦two-fold” and the IC50 was found to be 49 ± 11 nM. In addition, the CD helical residues in series [1] (hPTH(1-31)NH2 analogs) is listed as 9.

In the case of “SVSEIQLMHNLGKHLNSMEAVEWLRKKLQDV-NH2 [Arg^20→Ala]”, at wild-type human PTHR, the “detectable binding to the intact PTHR (in words)” value (from here on “detectable binding”) is given as “abolished detectable binding altogether; also recorded: abolished binding to the PTHR” and the IC50 is greater than 10000 nM. The CD helical residues in series [1] (hPTH(1-31)NH2 analogs) is 10.

In the case of “SVSEIQLMHNLGKHLNSMEEVEWLRKKLQDV [Arg^20→Glu]”, the “detectable binding” value on wild-type human PTHR is given as “abolished detectable binding; also recorded: complete loss of detectable binding affinity”. Also, the results for the CD helical residues in series [1] ([Ala1,Arg19]hPTH(1-31)NH2 analogs) and in series [1] (hPTH(1-31)NH2 analogs) were 8 and 7, respectively.

Regarding “SVSEIQLMHNLGKHLNSMEKVEWLRKKLQDV-NH2 [Arg^20→Lys]”, on wild-type human PTHR, the “detectable binding” value is “complete loss of detectable binding affinity” and the IC50 was greater than 10000 nM. In series [1] (hPTH(1-31)NH2 analogs), the CD helical residues was 8.

In the case of “SVSEIQLMHNLGKHLNSMEQVEWLRKKLQDV-NH2 [Arg^20→Gln]”, on wild-type human PTHR, the “detectable binding” value is on record as “complete loss of detectable binding affinity” and the IC50 was greater than 10000 nM. For the same substance, the CD helical residues in series [1] (hPTH(1-31)NH2 analogs) was 7.

In the case of “SVSEIQLMHNLGKHLNSMERAEWLRKKLQDV-NH2 [Val^21→Ala]”, on wild-type human PTHR, the “reduction (alteration) of apparent binding affinity for the intact PTHR relative to parent peptide” value was “three- to four-fold”. The CD helical residues in series [1] (hPTH(1-31)NH2 analogs) was 10.

As to “SVSEIQLMHNLGKHLNSMERVAWLRKKLQDV-NH2 [Glu^22→Ala]”, the “enhancement in apparent PTHR-binding affinity relative to parent peptide” value at wild-type human PTHR is “≦two-fold”. The CD helical residues in series [1] (hPTH(1-31)NH2 analogs) is given as 9.

For the substance “SVSEIQLMHNLGKHLNSMERVEALRKKLQDV-NH2 [Trp^23→Ala]”, the “reduction (alteration) of apparent binding affinity for the intact PTHR relative to parent peptide” value on wild-type human PTHR was found to be 19 fold. The CD helical residues in series [1] (hPTH(1-31)NH2 analogs) was 7.

As to “SVSEIQLMHNLGKHLNSMERVEWARKKLQDV-NH2 [Leu^24→Ala]”, the “reduction (alteration) of apparent binding affinity for the intact PTHR relative to parent peptide” value on wild-type human PTHR was determined as 12 fold. Also, the CD helical residues in series [1] (hPTH(1-31)NH2 analogs) is given as 7.

For the substance “SVSEIQLMHNLGKHLNSMERVEWLAKKLQDV-NH2 [Arg^25→Ala]”, on wild-type human PTHR, the “reduction (alteration) of apparent binding affinity for the intact PTHR relative to parent peptide” value is given as “three- to four-fold”. Besides, in series [1] (hPTH(1-31)NH2 analogs), the CD helical residues was 7.

“SVSEIQLMHNLGKHLNSMERVEWLRAKLQDV-NH2 [Lys^26→Ala]”: the IC50 at wild-type human PTHR was 125 ± 8 nM. Moreover, the CD helical residues in series [1] (hPTH(1-31)NH2 analogs) is reported as 7.

Consider “SVSEIQLMHNLGKHLNSMERVEWLRKALQDV-NH2 [Lys^27→Ala]”, for which the “reduction (alteration) of apparent binding affinity for the intact PTHR relative to parent peptide” value on wild-type human PTHR was “three- to four-fold”. Moreover, the CD helical residues in series [1] (hPTH(1-31)NH2 analogs) was 9.

For “SVSEIQLMHNLGKHLNSMERVEWLRKKAQDV-NH2 [Leu^28→Ala]”, the “reduction (alteration) of apparent binding affinity for the intact PTHR relative to parent peptide” value on wild-type human PTHR is “three- to four-fold”. Also, in series [1] (hPTH(1-31)NH2 analogs), the CD helical residues is recorded as 8.

Consider “SVSEIQLMHNLGKHLNSMERVEWLRKKLADV-NH2 [Gln^29→Ala]”, for which the “enhancement in apparent PTHR-binding affinity relative to parent peptide” value at wild-type human PTHR is “≦two-fold”. Further, the CD helical residues in series [1] (hPTH(1-31)NH2 analogs) was 9.

Consider “SVSEIQLMHNLGKHLNSMERVEWLRKKLQDA-NH2 [Val^31→Ala]”, for which the “reduction (alteration) of apparent binding affinity for the intact PTHR relative to parent peptide” value at wild-type human PTHR is “three- to four-fold”. Besides, the CD helical residues in series [1] (hPTH(1-31)NH2 analogs) is recorded as 9.

“SVSEIQLMHNLGKHLNSMRRVAWLRKKLQDV-NH2 [Glu^19,22→Arg,Ala]”: on wild-type human PTHR, the “enhancement in apparent PTHR-binding affinity relative to parent peptide” value is “did not lead to further improvements” and the IC50 amounted to 54 ± 13 nM. For the same substance, the CD helical residues in series [1] (hPTH(1-31)NH2 analogs) is 8.

For “SVSEIQLMHNLGKHLNSMRRVEWLRKKLQDV-NH2 [Glu^19→Arg]”, the “enhancement in apparent PTHR-binding affinity relative to parent peptide” value on wild-type human PTHR is given as “≦two-fold”. Moreover, the CD helical residues in series [1] (hPTH(1-31)NH2 analogs) was 8.
